Reference: article PMC9740098, “In Vitro Evaluation of the Interaction of Seven Biologically Active Components in Anemarrhenae rhizoma with P-gp” (Molecules, 2022)

Assays:
P-gp [1] = molecular target: T1, P-gp (Homo sapiens, UniProt P08183); assay: Bidirectional transport assay of AR extract (seven components quantified); format: in vitro ADME; conditions: dog; for Papp A→B at 2 h / Papp B→A at 2 h: component given as AR extract (10 mg/mL in HBSS)
Protocol: (§1) The HBSS containing 10 mg/mL AR extract was prepared. Before experiments, cell monolayers were washed twice with HBSS and equilibrated with HBSS for 30 min at 37 °C. HBSS containing AR extract was added to either the apical or basolateral chamber (donor chamber), and blank HBSS was added to the opposite chamber (receiver chamber). The total volume is 0.5 mL in the apical chamber and 1.5 mL in the basolateral chamber. Aliquots (100 μL) were taken from the acceptor chamber every 30 min for 2 h, and the same volume of HBSS was replenished. The transport samples were prepared using solid-phase extraction (SPE). Bond Elut C18 cartridge (Agilent, Santa Clara, CA, USA, 100 mg, 1 mL, 100/pk) was preconditioned with 1 mL methanol and 1 mL deionized water. Both 100 μL of bidirectional assay sample solution and 20 μL of IS solution was loaded onto the SPE cartridge, and the eluent that passed through the SPE cartridge was discarded. After washing with 1 mL of deionized water, 1 mL of the eluent solvent was introduced into the SPE cartridge for collection. The target solutions were concentrated by nitrogen blowing and re-dissolved. The amount of seven constituents of AR was determined by LC-MS/MS. The apparent permeability (Papp) of each substrate across MDCK-MDR1 cell monolayers in both the basolateral to apical (B > A) and apical to basolateral (A > B) directions were calculated using the following formula: […]

P-gp [2] = molecular target: T1, P-gp; assay: Bidirectional transport assay of single components (substrate assay), with or without verapamil; format: in vitro ADME; conditions: dog; for efflux ratio at 2 h: n = 3, read-out: ER (efflux ratio); for Papp A→B at 2 h / Papp B→A at 2 h: n = 3
Protocol: as §1, with “Before” for “The HBSS containing 10 mg/mL AR extract was prepared. Before”, “different components” for “AR extract”

P-gp [3] = molecular target: T1, P-gp; assay: Bidirectional transport assay of Rh-123 (P-gp inhibition); format: cell-based; conditions: for Papp (AP-BL) of rhodamine-123 in combination with the compound / Papp (BL-AP) of rhodamine-123 in combination with the compound: dog, MDCK-MDR1, 120 min
Protocol: The HBSS containing 10 μM Rh-123 and different AR components as described in the above Section 4.6.1 were prepared. Additionally, The HBSS containing 10 μM Rh-123 and 0.625 μM valspodar were prepared as the positive control. Before experiments, cell monolayers were washed twice with HBSS and equilibrated with HBSS for 30 min at 37 °C. HBSS containing AR component and Rh-123 was added to either the apical or basolateral chamber (donor chamber), and HBSS containing AR component was added to the opposite chamber (receiver chamber). The total volume is 0.5 mL in the apical chamber and 1.5 mL in the basolateral chamber. Aliquots (100 μL) were taken from the acceptor chamber at 15 min, 30 min, 60 min, 90 min, and 120 min, and the same volume of blank HBSS was replenished. The positive control group was treated as above. The apparent permeability (Papp) of each substrate across MDCK-MDR1 cell monolayers in both the basolateral to apical (B > A) and apical to basolateral (A > B) directions were calculated using the following formula: […]

[4] = tested on: MDCK-MDR1 monolayer cell model; assay: Permeability assay validating the MDCK-MDR1 monolayer cell model; format: in vitro ADME; conditions: in 120 min
Excerpt: In this study, an MDCK-MDR1 monolayer cell model was established.

[5] = MDCK-MDR1, AR Extract Group, n = 3, read-out: ER (efflux ratio)
[6] = MDCK-MDR1, Single Component Group, Papp(BL-AP)/Papp(AP-BL)
[7] = MDCK-MDR1, with verapamil (concentration not stated), Single Component + Verapamil Group
[8] = Single Component Group, MDCK-MDR1, 2.0 µM TAIII, 1.6 μM TBII, 4.7 μM MGF, 4.7 μM IMGF, 3.4 μM NMGF, 1.2 μM SSG, 3.9 μM BHI
[9] = Single Component Group, MDCK-MDR1
[10] = MDCK-MDR1, Single Component + Verapamil Group

T1 sequence (P08183 whole entry): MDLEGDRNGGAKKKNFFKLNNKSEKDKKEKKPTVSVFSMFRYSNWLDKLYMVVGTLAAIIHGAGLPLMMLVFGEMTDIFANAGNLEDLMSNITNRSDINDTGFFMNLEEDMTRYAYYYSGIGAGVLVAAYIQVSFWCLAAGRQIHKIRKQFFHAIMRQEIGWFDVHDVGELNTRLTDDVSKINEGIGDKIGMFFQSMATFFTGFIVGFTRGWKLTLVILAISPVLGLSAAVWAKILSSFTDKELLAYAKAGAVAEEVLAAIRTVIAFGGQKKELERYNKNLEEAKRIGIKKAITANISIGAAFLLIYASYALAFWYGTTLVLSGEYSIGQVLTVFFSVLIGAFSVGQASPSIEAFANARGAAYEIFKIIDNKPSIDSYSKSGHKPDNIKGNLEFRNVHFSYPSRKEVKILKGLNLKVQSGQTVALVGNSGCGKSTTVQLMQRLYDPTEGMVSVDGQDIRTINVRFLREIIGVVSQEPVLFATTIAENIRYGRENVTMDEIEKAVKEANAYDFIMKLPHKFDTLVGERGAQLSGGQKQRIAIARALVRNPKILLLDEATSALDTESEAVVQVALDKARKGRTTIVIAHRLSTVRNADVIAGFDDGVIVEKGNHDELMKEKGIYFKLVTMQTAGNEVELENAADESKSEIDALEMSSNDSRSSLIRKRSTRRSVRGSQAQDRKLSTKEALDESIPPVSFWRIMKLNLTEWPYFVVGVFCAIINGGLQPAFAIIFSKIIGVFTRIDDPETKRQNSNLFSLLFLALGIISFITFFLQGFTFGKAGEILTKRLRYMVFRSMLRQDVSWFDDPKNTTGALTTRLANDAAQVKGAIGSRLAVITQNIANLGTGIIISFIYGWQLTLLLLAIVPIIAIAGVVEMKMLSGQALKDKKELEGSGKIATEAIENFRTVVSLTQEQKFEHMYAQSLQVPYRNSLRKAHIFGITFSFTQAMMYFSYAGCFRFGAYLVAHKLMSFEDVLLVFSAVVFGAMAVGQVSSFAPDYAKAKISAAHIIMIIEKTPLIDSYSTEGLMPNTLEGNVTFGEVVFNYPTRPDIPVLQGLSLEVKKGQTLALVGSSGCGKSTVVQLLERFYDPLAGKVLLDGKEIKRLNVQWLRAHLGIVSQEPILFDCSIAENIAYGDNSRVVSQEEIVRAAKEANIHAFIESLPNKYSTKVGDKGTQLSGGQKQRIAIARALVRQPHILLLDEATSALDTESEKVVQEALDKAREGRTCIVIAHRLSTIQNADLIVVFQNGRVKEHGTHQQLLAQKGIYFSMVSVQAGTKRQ

Row | SMILES | efflux ratio at 2 h (P-gp [1]; [5]) | Papp A→B at 2 h (P-gp [1]; MDCK-MDR1, n = 3) [×10⁻⁶ cm/s] | Papp B→A at 2 h (P-gp [1]; MDCK-MDR1, n = 3) [×10⁻⁶ cm/s] | efflux ratio at 2 h (P-gp [2]; [6]) | efflux ratio at 2 h (P-gp [2]; [7]) | Papp A→B at 2 h (P-gp [2]; [8]) [×10⁻⁶ cm/s] | Papp B→A at 2 h (P-gp [2]; [9]) [×10⁻⁶ cm/s] | ER (efflux ratio) of rhodamine-123 in combination with the compound (P-gp [3]; 10 μM Rh-123 with AR component or 0.625 μM valspodar, control ER 2.46, MDCK-MDR1, n = 3) | efflux ratio at 2 h (P-gp [1]; AR Extract Group, MDCK-MDR1, n = 3, read-out: ER (efflux ratio)) | Papp A→B at 2 h (P-gp [2]; [10]) [×10⁻⁶ cm/s] | Papp B→A at 2 h (P-gp [2]; [10]) [×10⁻⁶ cm/s] | efflux ratio at 2 h (P-gp [2]; [10]) | Papp A→B at 2 h (P-gp [2]; MDCK-MDR1, Single Component Group, 2.0 µM TAIII, 1.6 μM TBII, 4.7 μM MGF, 4.7 μM IMGF, 3.4 μM NMGF, 1.2 μM SSG, 3.9 μM BHI) [×10⁻⁶ cm/s] | Papp B→A at 2 h (P-gp [2]; MDCK-MDR1, Single Component Group) [×10⁻⁶ cm/s] | Papp (AP-BL) of rhodamine-123 in combination with the compound (P-gp [3]) [×10⁻⁶ cm/s] | Papp (BL-AP) of rhodamine-123 in combination with the compound (P-gp [3]) [×10⁻⁶ cm/s] | Pe value [4]
1 | O=c1c2cc(O[C@@H]3O[C@H](CO)[C@@H](O)[C@H](O)[C@H]3O)c(O)cc2oc2cc(O)c([C@@H]3O[C@H](CO)[C@@H](O)[C@H](O)[C@H]3O)c(O)c12 [NMGF, neomangiferin] | 0.67 | 0.0976 | 0.0654 | < 2 | 0.52 | 0.121 | 0.137 |  |  |  |  |  |  |  |  |  | 
2 | C[C@H]1CC[C@@]2(OC1)O[C@H]1C[C@H]3[C@@H]4CC[C@@H]5C[C@@H](O)CC[C@]5(C)[C@H]4CC[C@]3(C)[C@H]1[C@@H]2C [SSG, sarsasapogenin] |  | 0.0398 | 0.0347 | < 2 |  |  |  | no statistical difference | 0.87 | 0.0904 | 0.0374 | 0.41 | 0.0374 | 0.0566 |  |  | 
3 | O=c1c2cc(O)c(O)cc2oc2c([C@@H]3O[C@H](CO)[C@@H](O)[C@H](O)[C@H]3O)c(O)cc(O)c12 [IMGF, isomangiferin] | 0.91 | 0.0546 | 0.0495 | < 2 | 0.55 | 0.0651 | 0.0702 |  |  |  |  |  |  |  |  |  | 
4 | O=c1c2cc(O)c(O)cc2oc2cc(O)c([C@@H]3O[C@H](CO)[C@@H](O)[C@H](O)[C@H]3O)c(O)c12 [MGF, mangiferin] | 0.48 | 0.586 | 0.283 | > 2 | 0.53 | 0.606 | 1.35 |  |  |  |  |  |  |  | 1.88 | 2.36 | 
5 | C[C@H]1CC[C@@]2(OC1)O[C@H]1C[C@H]3[C@@H]4CC[C@@H]5C[C@@H](O[C@@H]6O[C@H](CO)[C@H](O)[C@H](O)[C@H]6O[C@@H]6O[C@H](CO)[C@@H](O)[C@H](O)[C@H]6O)CC[C@]5(C)[C@H]4CC[C@]3(C)[C@H]1[C@@H]2C [TAIII, timosaponin AIII] | 0.63 | 3.05 | 1.94 | > 2 | 0.88 | 0.955 | 2.16 |  |  |  |  |  |  |  | 1.78 | 2.17 | 
6 | C[C@@H](CC[C@@]1(O)O[C@H]2C[C@H]3[C@@H]4CC[C@@H]5C[C@@H](O[C@@H]6O[C@H](CO)[C@H](O)[C@H](O)[C@H]6O[C@@H]6O[C@H](CO)[C@@H](O)[C@H](O)[C@H]6O)CC[C@]5(C)[C@H]4CC[C@]3(C)[C@H]2[C@@H]1C)CO[C@@H]1O[C@H](CO)[C@@H](O)[C@H](O)[C@H]1O [TBII, timosaponin BII] | 0.83 | 1.81 | 1.5 | > 2 | 0.65 | 0.719 | 1.67 |  |  |  |  |  |  |  | 1.85 | 2.34 | 
7 | O=C([O-])c1ccccc1-c1c2ccc(=O)cc-2oc2cc([O-])ccc12.[Na+].[Na+] [fluorescein sodium] |  |  |  |  |  |  |  |  |  |  |  |  |  |  |  |  | 0.78 ± 0.02 × 10^−6 cm/s
8 | COc1ccc(-c2oc3c(CC=C(C)C)c(O)cc(O)c3c(=O)c2O[C@@H]2O[C@@H](C)[C@H](O)[C@@H](O)[C@H]2O)cc1 [BHI, baohuoside I] |  | 0.155 | 0.298 | 2.26 | 1.08 | 0.24 | 0.72 |  |  |  |  |  |  |  | 1.73 | 2.53 | 
